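In this assay, cells in 96-well plates receive the compound at five concentrations for 48 hours. Endpoints are linearly interpolated between the surrounding concentrations. GI50 marks 50% less growth. At the TGI there is no net growth.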 Where a SMILES comes first, the peptide text is derived from it. The star is where a group is joined. Palmitoyl = CCCCCCCCCCCCCCCC(=O)*
Tests used:
Assay in all cases: DTP human tumour cell line panel, 48 h
[1] = system: A498 renal
[2] = system: HOP-62 NSCLC
[3] = system: HT29 colon
[4] = system: MALME-3M melanoma
[5] = system: NCI-H23 lung
[6] = system: NCI/ADR-RES ovarian
[7] = system: OVCAR-8 ovarian
[8] = system: RPMI-8226 leukemia
[9] = system: SF-268 CNS
[10] = system: UO-31 renal

SMILES	TGI [1] [µM]	TGI [2] [µM]	TGI [3] [µM]	TGI [4] [µM]	TGI [5] [µM]	TGI [6] [µM]	TGI [7] [µM]	TGI [8] [µM]	TGI [9] [µM]	TGI [10] [µM]	GI50 [1] [µM]	GI50 [2] [µM]	GI50 [3] [µM]	GI50 [4] [µM]	GI50 [5] [µM]	GI50 [6] [µM]	GI50 [7] [µM]	GI50 [8] [µM]	GI50 [9] [µM]	GI50 [10] [µM]
CC(C)(C)c1ccc2c(c1)C#Cc1cc3c(cc1OCCCO2)C#Cc1cc(C(C)(C)C)ccc1OCCCO3	> 100	> 100	> 100	> 100	4.54	29.5	> 100	> 100	> 100											
CCc1n[nH]c(=O)n1-c1ccc2ccccc2c1	> 100	> 100	> 100	> 100	> 100	> 100	> 100	> 100	> 100	> 100										
O=C(CCSC1=NCCCN1)c1ccc(F)cc1	44.2	> 68.9	40.5	19.1	43.4	> 91.5	> 94.3	14.8	67.1	20.6										
CCN(C(=O)N[C@@H](C)C(=O)N[C@@H](Cc1ccccc1)C(=O)OC)c1ccccc1	> 100	> 100	> 100	83.8	> 100	> 100	> 100	> 100	> 100	> 100										
COc1ccc(CC(N)=O)cc1OC	> 1250	> 1250	> 1250	> 1250	> 1250	> 1250	> 125	> 1250	> 1250	> 1250										
CCOC(=O)CC/C(=N/Nc1ccc(Cl)cc1[N+](=O)[O-])C(=O)OCC	> 100	> 100	> 100	> 100	> 100	> 100	> 100	> 100	> 100	> 100										
O=c1onc2n1-c1cc(Cl)ccc1C(=S)N1CSCC21 (stereo not drawn)	> 100	> 100	> 100	> 100		> 100	> 100	> 100	> 100	> 100										
CCOC(=O)c1c2cccccc-2nc1Nc1cccc2c(C)ccnc12	> 10	> 10	> 10	> 10	> 10	> 10	> 10	> 10	> 10	> 10										
Cn1ncc2c(NCc3ccccc3)ncnc21	> 100	> 100	> 100	> 100	> 100	> 100	> 100	> 100	> 100	> 100										
CCOC(=O)CNC(=O)NC12CC3CC(CC(C3)C1)C2	462	> 502	> 550	420	> 515	> 550	> 550	> 550	> 550	512										
C=C(C)[C@H]1C2=CC(C(=O)OC)=C(C[C@H](C(=C)C)[C@@H](O)[C@@H](O)C3=C[C@H]1OC3=O)O2	> 100	> 100	> 100	> 100	> 100	> 100	> 100	> 100	> 100	85.6										
O=C(c1ccccc1)c1ccc2c(c1)NC(=O)c1ccccc1SSc1ccccc1C(=O)N2	> 100	> 100	> 100	> 100	> 100	> 100	> 100	> 100	> 100	> 100										
O=C(O)C(O)C(O)C(O)C(O)CO (stereo not drawn)	> 100	> 100	> 100	> 100	> 100	> 100	> 100	> 100	> 100	> 100										
CC(C)Oc1cccc(N2C(=NCc3c[nH]c4ccccc34)Nc3ccncc3S2(=O)=O)c1	> 100	> 100	> 100	58.8	> 100	97.5	> 100	30	> 100	> 100										
CCOC(=O)C(NC(=O)CC)(N1CCN(c2cc3c(cc2F)c(=O)c(C(=O)O)cn3C2CC2)CC1)C(F)(F)F (stereo not drawn)	> 100	> 100	> 100	> 100	> 100	> 100	> 100	> 100	> 100	> 100										
c1ccc(C(C(=Nc2ccc(Cc3ccc(N=C(C(c4ccccc4)c4ccccc4)N4CC4)cc3)cc2)N2CC2)c2ccccc2)cc1	29.1	33	15.9	38.8	30.8	24.2	22.5	39.5	21.8	14.8										
CCCCCCCCCCCCCCCC(=O)N1CCCC1C(=O)NCC(=O)NC(Cc1ccccc1)C(=O)N1CCCC1C(=O)NC(CO)C(=O)NC(Cc1ccc(O)cc1)C(=O)NC(CCCCN)C(=O)NC(CC(C)C)C(=O)NC(CCCN=C(N)N)C(=O)N1CCCC1C(=O)NCC(N)=O (stereo not drawn) (Palmitoyl-PGFPSYKLRPG-NH2; configuration not given here)	93.2	48	29.3	5.73	36.6	39.2	55.4	29.3	30.6	56.8	32.8	22.9	15.8	0.45	18.7	18.2	22.1	11.6	12.4	20.5
CCCCOCCOC1=C(Cl)C(=O)c2c(O)ccc(O)c2C1=O	4.33	2.49	2.16	0.628	1.02	9.14	2.56	0.806	3.18	1.72										
COc1ccc(C(=O)NCCN(C)C)c2nc3ccccc3cc12	3.76	2.72	5.6	2.3	2.2	5.22	4.67	6.71	9.82	5.14										
Nc1ncnc2c1ccn2C/C=C/CO	> 100	> 100	> 100	> 100	> 100	> 100	> 100	> 100	> 100	> 100										
